Measured values taken from PubChem BioAssay AID2060902 (Molecular Pharmacology Branch, DTP, NCI, 2025).

System: 485368-065-R3-J5-PDC spheroids with HUVEC/MSC, viability
Assay: Anticancer human tumor 485368-065-R3-J5-PDC patient-derived pancreatic carcinoma cell line growth inhibition [RAS]
Conditions: for IC50: curve of first compound; for viability, T/C: stronger effect = lower value
Method in brief: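 Multi-cell-type spheroids: tumor cells plus HUVEC endothelial cells and mesenchymal stem cells. RAS-pathway inhibitors were combined with targeted agents, each dosed in half-log steps down from clinical Cmax, or from 10 microM when Cmax was unknown.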
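Further: spheroids exposed to agents for seven days before readout.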

For `C=CC(=O)N1CCN(c2nc(OCC3CCCN3C)nc3c(F)c(-c4nc(N)cc(C)c4C(F)(F)F)c(Cl)cc23)C(C)C1` (centres undefined) + C#Cc1c(F)ccc2cc(O)cc(-c3ncc4c(N5CC6CCC(C5)N6)nc(OCC56CCCN5CC(F)C6)nc4c3F)c12, which IC50 (second compound 0.0316 µM) is on record?
The IC50 was over 1000 nM.

What about the IC50 (second compound 0.1 µM) of the same molecule?
Its IC50 is over 1000 nM.

What about the IC50 (second compound 0.316 µM) of the same molecule?
The IC50 was over 1000 nM.

What about the IC50 (second compound 1 µM) of the same molecule?
The IC50 was over 1000 nM.

And the IC50 (second compound 3.16 µM)?
The IC50 was 794 nM.

What about the IC50 (second compound 10 µM) of the same molecule?
The IC50 was under 3.16 nM.

What about the viability, T/C (second compound 0.0316 µM, first compound 0.00316 µM) of the same molecule?
The viability, T/C was 101%.

What about the viability, T/C (second compound 0.0316 µM, first compound 0.01 µM) of the same molecule?
The viability, T/C was 95.6%.

What about the viability, T/C (second compound 0.0316 µM, first compound 0.0316 µM) of the same molecule?
The viability, T/C was 112%.

And the viability, T/C (second compound 0.0316 µM, first compound 0.1 µM)?
The viability, T/C was 106%.

What about the viability, T/C (second compound 0.0316 µM, first compound 0.316 µM) of the same molecule?
The viability, T/C was 100%.

And the viability, T/C (second compound 0.0316 µM, first compound 1 µM)?
Its viability, T/C is 107%.

What about the viability, T/C (second compound 0.1 µM, first compound 0.00316 µM) of the same molecule?
Its viability, T/C is 102%.

And the viability, T/C (second compound 0.1 µM, first compound 0.01 µM)?
The viability, T/C was 100%.

And the viability, T/C (second compound 0.1 µM, first compound 0.0316 µM)?
The viability, T/C was 106%.

What about the viability, T/C (second compound 0.1 µM, first compound 0.1 µM) of the same molecule?
Its viability, T/C is 101%.

And the viability, T/C (second compound 0.1 µM, first compound 0.316 µM)?
Its viability, T/C is 117%.

And the viability, T/C (second compound 0.1 µM, first compound 1 µM)?
The viability, T/C was 110%.

What about the viability, T/C (second compound 0.316 µM, first compound 0.00316 µM) of the same molecule?
Its viability, T/C is 105%.

What about the viability, T/C (second compound 0.316 µM, first compound 0.01 µM) of the same molecule?
The viability, T/C was 104%.

And the viability, T/C (second compound 0.316 µM, first compound 0.0316 µM)?
The viability, T/C was 93.6%.

What about the viability, T/C (second compound 0.316 µM, first compound 0.1 µM) of the same molecule?
The viability, T/C was 98.5%.

And the viability, T/C (second compound 0.316 µM, first compound 0.316 µM)?
Its viability, T/C is 103%.

And the viability, T/C (second compound 0.316 µM, first compound 1 µM)?
Its viability, T/C is 101%.

What about the viability, T/C (second compound 1 µM, first compound 0.00316 µM) of the same molecule?
Its viability, T/C is 94.3%.

What about the viability, T/C (second compound 1 µM, first compound 0.01 µM) of the same molecule?
The viability, T/C was 95.9%.

And the viability, T/C (second compound 1 µM, first compound 0.0316 µM)?
The viability, T/C was 98.7%.

And the viability, T/C (second compound 1 µM, first compound 0.1 µM)?
Its viability, T/C is 97.6%.

What about the viability, T/C (second compound 1 µM, first compound 0.316 µM) of the same molecule?
The viability, T/C was 94.8%.

And the viability, T/C (second compound 1 µM, first compound 1 µM)?
Its viability, T/C is 72.1%.

And the viability, T/C (second compound 3.16 µM, first compound 0.00316 µM)?
The viability, T/C was 89.7%.

And the viability, T/C (second compound 3.16 µM, first compound 0.01 µM)?
Its viability, T/C is 83.2%.

What about the viability, T/C (second compound 3.16 µM, first compound 0.0316 µM) of the same molecule?
Its viability, T/C is 81.7%.

What about the viability, T/C (second compound 3.16 µM, first compound 0.1 µM) of the same molecule?
Its viability, T/C is 72.3%.

What about the viability, T/C (second compound 3.16 µM, first compound 0.316 µM) of the same molecule?
The viability, T/C was 71.2%.

What about the viability, T/C (second compound 3.16 µM, first compound 1 µM) of the same molecule?
Its viability, T/C is 44.4%.

And the viability, T/C (second compound 10 µM, first compound 0.00316 µM)?
The viability, T/C was 38.1%.

And the viability, T/C (second compound 10 µM, first compound 0.01 µM)?
The viability, T/C was 40.3%.

And the viability, T/C (second compound 10 µM, first compound 0.0316 µM)?
The viability, T/C was 38.3%.

And the viability, T/C (second compound 10 µM, first compound 0.1 µM)?
The viability, T/C was 41.7%.

And the viability, T/C (second compound 10 µM, first compound 0.316 µM)?
Its viability, T/C is 36.5%.

What about the viability, T/C (second compound 10 µM, first compound 1 µM) of the same molecule?
Its viability, T/C is 36.6%.

What does the source list for `CC1(C)CCC(Nc2ncc(C(F)(F)F)c(-c3c[nH]c4c(P(C)(C)=O)c(C#N)ccc34)n2)CN1` (centres undefined) + C#Cc1c(F)ccc2cc(O)cc(-c3ncc4c(N5CC6CCC(C5)N6)nc(OCC56CCCN5CC(F)C6)nc4c3F)c12?
IC50 (second compound 0.0316 µM): 3.18 nM; IC50 (second compound 0.1 µM): 3.83 nM; IC50 (second compound 0.316 µM): 4.39 nM; IC50 (second compound 1 µM): 4.77 nM; IC50 (second compound 3.16 µM): 4.85 nM; IC50 (second compound 10 µM): < 0.949 nM; viability, T/C (second compound 0.0316 µM, first compound 0.000949 µM): 89.8%; viability, T/C (second compound 0.0316 µM, first compound 0.003 µM): 51.1%; viability, T/C (second compound 0.0316 µM, first compound 0.00949 µM): 33.6%; viability, T/C (second compound 0.0316 µM, first compound 0.03 µM): 31%; viability, T/C (second compound 0.0316 µM, first compound 0.0949 µM): 27.3%; viability, T/C (second compound 0.0316 µM, first compound 0.3 µM): 30.2%; viability, T/C (second compound 0.1 µM, first compound 0.000949 µM): 92.7%; viability, T/C (second compound 0.1 µM, first compound 0.003 µM): 53.2%; viability, T/C (second compound 0.1 µM, first compound 0.00949 µM): 38.5%; viability, T/C (second compound 0.1 µM, first compound 0.03 µM): 29.4%; viability, T/C (second compound 0.1 µM, first compound 0.0949 µM): 27.7%; viability, T/C (second compound 0.1 µM, first compound 0.3 µM): 33.6%; viability, T/C (second compound 0.316 µM, first compound 0.000949 µM): 91.5%; viability, T/C (second compound 0.316 µM, first compound 0.003 µM): 56.4%; viability, T/C (second compound 0.316 µM, first compound 0.00949 µM): 36.4%; viability, T/C (second compound 0.316 µM, first compound 0.03 µM): 33.6%; viability, T/C (second compound 0.316 µM, first compound 0.0949 µM): 30.1%; viability, T/C (second compound 0.316 µM, first compound 0.3 µM): 28.8%; viability, T/C (second compound 1 µM, first compound 0.000949 µM): 85.2%; viability, T/C (second compound 1 µM, first compound 0.003 µM): 55.8%; viability, T/C (second compound 1 µM, first compound 0.00949 µM): 40.7%; viability, T/C (second compound 1 µM, first compound 0.03 µM): 36%; viability, T/C (second compound 1 µM, first compound 0.0949 µM): 30.8%; viability, T/C (second compound 1 µM, first compound 0.3 µM): 31.1%; viability, T/C (second compound 3.16 µM, first compound 0.000949 µM): 72.3%; viability, T/C (second compound 3.16 µM, first compound 0.003 µM): 56.3%; viability, T/C (second compound 3.16 µM, first compound 0.00949 µM): 41.2%; viability, T/C (second compound 3.16 µM, first compound 0.03 µM): 36.5%; viability, T/C (second compound 3.16 µM, first compound 0.0949 µM): 36.9%; viability, T/C (second compound 3.16 µM, first compound 0.3 µM): 35.6%; viability, T/C (second compound 10 µM, first compound 0.000949 µM): 41.6%; viability, T/C (second compound 10 µM, first compound 0.003 µM): 38.1%; viability, T/C (second compound 10 µM, first compound 0.00949 µM): 31.4%; viability, T/C (second compound 10 µM, first compound 0.03 µM): 35.4%; viability, T/C (second compound 10 µM, first compound 0.0949 µM): 30.4%; viability, T/C (second compound 10 µM, first compound 0.3 µM): 27.8%
